Measurements taken from patent US20210106582A1, “COMPOUNDS AND PHARMACEUTICAL COMPOSITIONS THEREOF FOR USE IN THE TREATMENT OF FIBROTIC DISEASES” (Galapagos NV, priority 2017, published 2021).
Values joined by “and” are separate entries in the source; they are usually repeats but may differ in a detail not shown here. Identical values can stand only once.

What was measured:
[1] = system: male C57BL/6 mice fed a Methionine and Choline-deficient (MCD) diet; assay: MCD model (methionine and choline deficient diet, NASH); assay type: in vivo; conditions: individual animals, 30 mg/kg q.d. p.o., MCD diet 8 wk
Procedure: The methionine and choline deficient (MCD) diet model is used to produce a severe phenotype of NASH in […] (Santhekadur et al., 2017), and is used to evaluate the compounds of the invention.
At induction, 8 weeks-old male C57BL/6 mice (Janvier Labs, France) maintained at 22° C.±2° C. and humidity at 55%±10%, with a 12-hrs dark/light cycle are fed a standard diet (chow (A04C-10, Safe, France) or a Methionine and Choline-deficient (MCD) diet (EFTD.90262, Ssniff, Soest, Germany) for 8 weeks. All animals have access to filtered tap drinking water.
Four weeks after the induction, the animals are either assigned to a control-group or a test-group.
Test group animals are dosed with the a test compound, i.e. Compound A (CpdA) or Compound B (CpdB), at 30 mg/kg, q.d., p.o. formulated in methylcellulose 0.5%, 1 equivalent HCl. The control groups receives a similar volume of vehicle (10 mL/kg), i.e. the standard diet for control group 1 (C1) and the MCD diet for control group 2 (C2). Mice are randomly assigned to a treatment group according to their body weight in order to ensure a homogenous reparation.
After sacrifice (week 8), the activity of the test compound on the development of NASH is assessed by plasma ALT and AST levels and in liver by histopathological examination of fibrosis and steatosis (Sirius red, Oil Red O), collagen (OH-Pro) and triglycerides content and expression of fibrotic and inflammatory genes.
In addition, the NAS score is determined to further evaluate the compounds with respect to their effect on diet induced NASH. The nonalcoholic fatty liver disease activity scoring (NAS) has been proposed and accepted as a tool to measure changes in NAFLD during therapeutic trials (Brunt et al., 2011; Kleiner et al., 2005).
The NAS score (0-8) is defined as the sum of the steatosis score (0-3), lobular inflammation score (0-3), ballooning score (0-2). A NAS score of ≥5 is indicative of a NASH diagnostic.

[2] = system: C57BL/6N male mice, bleomycin induced pulmonary fibrosis; assay: Therapeutic bleomycin induced pulmonary fibrosis 21-day mice model; assay type: in vivo; conditions: individual animals, BLM, CpdA 30 mg/kg BID PO D7-D21
Procedure: The aim of the study is to test the efficacy of a test compound at three different doses in a 21-day model of bleomycin induced pulmonary fibrosis in mice.
11 week-old C57BL/6N male mice from Charles River (Italy) are maintained on 12 h light/dark cycle at 22° C. with ad libidum access to tap water and food.
On day 0, all mice in groups 2-4 receive a 1.5 U/kg oropharyngeal administration of bleomycin (BLM) to induce pulmonary fibrosis Animals in group 1 are not administered bleomycin, but instead receive a single dose of saline via the oropharyngeal route, and are considered sham control mice.
Animals are examined clinically twice daily. List of clinical signs and parameters are indicated in humane endpoints table. Animals are weighed daily starting from DO.
On day 21, lung functionality is determined. After deep anesthesia induced by an intraperitoneal injection (10 mL/kg) of a solution of xylazine (5 mg/kg) and ketamine (75 mg/kg), the trachea is exposed through midline incision and a cannula is inserted. Mice are ventilated with a tidal volume of 10 mL/kg at a frequency of 150 breaths/minute. FlexiVent (SCIREQ®) perturbations are performed three times. Deep Inflation and Pressure-Volume loops (PV loops) with stepwise increasing pressure are performed to measure the Inspiratory Capacity and stepwise pressure-driven perturbation (PVs-P). PV loops between 0 and 30 cm H2O are generated to obtain Total Lung Capacity (A). A snapshot perturbation maneuver is imposed, which is a threefold sinusoidal wave of in- and expiration controlled by the ventilator, resulting in resistance (Rrs), compliance (Crs), and elastance (Ers) of the whole respiratory system (airways, lung and chest wall). A value for each group is calculated with average FlexiVent-validated measurements recorded in each individual subject.
Then, two hours after the last dose of test substance and nintedanib, mice are sacrificed by anesthetic overdose. The lungs are excised and weighed individually. The lungs are then placed into marked bottles containing 10% buffered formalin for further histopathological evaluation.
Body weight data and lung weight data are processed using MS Excel. Statistical analysis and graphical presentation are performed using GraphPad Prism software (version 5.04).
For histopathological evaluation, whole lungs are embedded in paraffin and stained with Mallory's trichrome.
Pulmonary histological changes are assessed using Matsuse's modification of Ashcroft score (Ashcroft et al., 1988; Matsuse et al., 1999). Statistical analysis and graphical presentation is performed using GraphPad Prism software (version 5.04). Mann-Whitney test is employed.
Differences between groups are considered statistically significant when p<0.05.

## O=c1nc(OC[C@@H]2COCCO2)cc2n1CCc1cc(C#CC3CC3)ccc1-2 [Compound A, 9-Cyclopropylethynyl-2-((S)-1-[1,4]dioxan-2-ylmethoxy)-6,7-dihydro-pyrimido[6,1-a]isoquinolin-4-one]
[1]; NRQ scaled versus disease, Fig 8 Panel B
  TIMP1 NRQ gene expression: 1.0 and 1.1 and 0.4 (3×) and 0.8 and 0.9 and 0.1 and 0.5 and 2.3
[1]; dosing from week 4, Normalised Relative Quantity scaled versus disease, FIG. 8 Panel A
  Col1a NRQ gene expression: 0.3 and 0.8 (2×) and 1.0 and 0.5 and 0.1 and 0.4 and 2.1 and 0.6 and 2.4
[1]; liver, NRQ scaled versus disease, Fig 9 Panel A
  TNfα NRQ gene expression: 0.8 (3×) and 1.4 and 1.0 and 0.7 and 0.5 and 0.1 and 1.5 and 0.4
[1]; liver, NRQ scaled versus disease, Fig 9 Panel B
  CC12 NRQ gene expression: 0.5 (4×) and 1.2 and 0.6 (2×) and 0.7 and 0.2 and 1.0
[1]; total NAS score (0-8), Fig 10
  NAS scoring data: 7.0 (4×) and 6.0 (4×) and 5.0 and 8.0
[2]; Figure 14 panel B
  Compliance of the Respiratory System: 0.034 mL/cmH2O and 0.030 mL/cmH2O and 0.035 mL/cmH2O and 0.037 mL/cmH2O and 0.036 mL/cmH2O and 0.033 mL/cmH2O and 0.041 mL/cmH2O (2×) and 0.031 mL/cmH2O and 0.038 mL/cmH2O and 0.046 mL/cmH2O and 0.042 mL/cmH2O
[2]; Figure 14 panel C
  Elastance of the Respiratory System: 29.43 cmH2O/mL and 33.18 cmH2O/mL and 28.94 cmH2O/mL and 26.99 cmH2O/mL and 27.50 cmH2O/mL and 30.18 cmH2O/mL and 24.40 cmH2O/mL and 31.90 cmH2O/mL and 26.35 cmH2O/mL and 21.92 cmH2O/mL and 23.92 cmH2O/mL and 24.49 cmH2O/mL
[2]; Matsuse's modification, Figure 13
  Ashcroft Score: 2.4 and 3.0 and 2.5 and 3.3 and 3.4 (2×) and 2.9 (2×) and 2.7 (2×) and 3.6 and 2.3 and 2.0 and 2.1
[2]; day 21 FlexiVent, Figure 14 panel A
  Inspiratory Capacity: 0.58 mL (2×) and 0.66 mL and 0.65 mL and 0.59 mL and 0.75 mL and 0.69 mL (2×) and 0.84 mL and 0.73 mL and 0.71 mL
